# Assay results from ChEMBL document CHEMBL4673289, “Design, synthesis and biological evaluation of imidazolopyridone derivatives as novel BRD4 inhibitors” (Bioorg Med Chem, 2021).
# Calls of active or inactive are those of the source. The calls are words filed in the database; no cut-off is given here.
# Columns and labels:
# Mus musculus [1] = test: Decrease in c-Myc expression in BALB/c mouse allografted with mouse Panc02 cells […] at 50 mg/kg, ip administered every day measured after 20 days by immunohistochemical analysis; type: functional, organism-based; settings: time 20.0 day
# [2] = molecular target: T1, Bromodomain-containing protein 4 (Homo sapiens, UniProt O60885); test: Inhibition of BRD4 in human BXPC-3 cells assessed as blocking of BRD4-pTEFB interaction; type: cell-based
# Mus musculus [3] = test: Downregulation of Ki67 expression in BALB/c mouse allografted with mouse Panc02 cells […] at 50 mg/kg, ip administered every day in combination with gemcitabine at 100 mg/kg measured after 20 days by immunohistochemical analysis; type: functional, organism-based; settings: time 20.0 day
# Mus musculus [4] = test: Upregulation of caspase 3 in BALB/c mouse allografted with mouse Panc02 cells […] at 50 mg/kg, ip administered every day measured after 20 days by immunohistochemical analysis; type: functional, organism-based; settings: time 20.0 day
# BXPC-3 [5] = test: Cell cycle arrest in human BXPC-3 cells assessed as acumulation at G0/G1 phase by measuring downregulation of CyclinD1 at 4 to 16 uM measured after 48 hrs by Western blot analysis; type: functional, cell-based; settings: dose 4-16 µM
# BXPC-3 [6] = test: Cell cycle arrest in human BXPC-3 cells assessed as accumulation at sub-G1 phase at 8 to 16 uM measured after 48 hrs by AnnexinV-FITC/propidium iodide staining based flow cytometry; type: functional; settings: dose 8-16 µM
# BXPC-3 [7] = test: Induction of morphological changes in human BXPC-3 cells assessed as assessed as increase in apoptotic cells at 8 uM measured after 48 hrs by light microscopic analysis; type: functional, cell-based
# Mus musculus [8] = test: Upregulation of caspase 3 in BALB/c mouse allografted with mouse Panc02 cells […] at 50 mg/kg, ip administered every day in combination with gemcitabine at 100 mg/kg measured after 20 days by immunohistochemical analysis; type: functional, organism-based; settings: time 20.0 day
# BXPC-3 [9] = test: Induction of apoptosis in human BXPC-3 cells assessed as activation of caspase 3 at 4 to 16 uM measured after 48 hrs by Western blot analysis; type: functional, cell-based; settings: dose 4-16 µM
# BXPC-3 [10] = test: Cell cycle arrest in human BXPC-3 cells assessed as accumulation at G0/G1 phase measured after 48 hrs by AnnexinV-FITC/propidium iodide staining based flow cytometry; type: functional; settings: dose 4-16 µM
# BXPC-3 [11] = test: Cell cycle arrest in human BXPC-3 cells assessed as acumulation at G0/G1 phase by measuring downregulation of CyclinE1 at 4 to 16 uM measured after 48 hrs by Western blot analysis; type: functional, cell-based; settings: dose 4-16 µM
# BXPC-3 [12] = test: Cell cycle arrest in human BXPC-3 cells assessed as acumulation at G0/G1 phase by measuring upregulation of p27 at 4 to 16 uM measured after 48 hrs by Western blot analysis; type: functional, cell-based; settings: dose 4-16 µM
# BXPC-3 [13] = test: Induction of apoptosis in human BXPC-3 cells assessed as early apoptotic cells at 4 uM measured after 48 hrs by AnnexinV/propidium iodide staining based flow cytometry (reference value: 1.02 %); type: functional
# [14] = molecular target: T1, Bromodomain-containing protein 4; test: Inhibition of BRD4 (unknown origin) preincubated for 15 mins followed by substrate addition and measured after 1 hr by AlphaScreen assay relative to control
# BXPC-3 [15] = test: Cell cycle arrest in human BXPC-3 cells assessed as acumulation at G0/G1 phase by measuring downregulation of CDK4 at 4 to 16 uM measured after 48 hrs by Western blot analysis; type: functional, cell-based; settings: dose 4-16 µM
# BXPC-3 [16] = test: Inhibition of c-Myc protein expression in human BXPC-3 cells at 4 to 16 uM measured after 48 hrs by Western blot analysis; type: functional, cell-based; settings: dose 4-16 µM
# Mus musculus [17] = test: Downregulation of Ki67 expression in BALB/c mouse allografted with mouse Panc02 cells […] at 50 mg/kg, ip administered every day measured after 20 days by immunohistochemical analysis; type: functional, organism-based; settings: time 20.0 day
# BXPC-3 [18] = test: Antiproliferative activity against human BXPC-3 cells assessed as cell growth inhibition measured after 48 to 72 hrs by MTT assay; type: functional, cell-based; settings: dose 2-32 µM, time 48-72 hrs
# BXPC-3 [19] = test: Induction of apoptosis in human BXPC-3 cells assessed as upregulation of Bax at 4 to 16 uM measured after 48 hrs by Western blot analysis; type: functional, cell-based; settings: dose 4-16 µM
# Panc02 [20] = test: Induction of apoptosis in mouse Panc02 cells allografted in BALB/c mouse assessed as condensed chromatin at 50 mg/kg, ip administered every day in combination with gemcitabine at 100 mg/kg measured after 20 days by hematoxylin and eosin staining based assay; type: functional, organism-based; settings: time 20.0 day
# Panc02 [21] = test: Antitumor activity against mouse Panc02 allografted in BALB/c mouse assessed as reduction in tumor weight at 50 mg/kg, ip administered every day for 20 days relative to control; type: functional; settings: 480 h, time 20 day, read-out: TGI
# BXPC-3 [22] = test: Induction of apoptotic cell death in human BXPC-3 cells at 4 to 16 uM measured after 48 hrs by Live/Dead dye based inverted fluorescence microscopic analysis; type: functional; settings: dose 4-16 µM
# BXPC-3 [23] = test: Inhibition of BRD4 protein expression in human BXPC-3 cells at 4 to 16 uM measured after 48 hrs by Western blot analysis; type: functional, cell-based; settings: dose 4-16 µM
# PANC-1 = test: Antiproliferative activity against human PANC-1 cells assessed as cell growth inhibition at 2 uM measured after 48 to 72 hrs by MTT assay relative to control; type: functional; settings: time 48-72 hrs, read-out: GI
# Panc02 [24] = test: Induction of apoptosis in mouse Panc02 cells allografted in BALB/c mouse assessed as condensed chromatin at 50 mg/kg, ip administered every day measured after 20 days by hematoxylin and eosin staining based assay; type: functional, organism-based; settings: time 20.0 day
# BXPC-3 [25] = test: Cell cycle arrest in human BXPC-3 cells assessed as accumulation at G1/S phase by measuring upregulation of Rb at 4 to 16 uM measured after 48 hrs by Western blot analysis; type: functional, cell-based; settings: dose 4-16 µM
# BXPC-3 [26] = test: Cell cycle arrest in human BXPC-3 cells assessed as accumulation at G1/S phase by measuring upregulation of p57 measured after 48 hrs by Western blot analysis; type: functional, cell-based; settings: dose 4-16 µM
# BXPC-3 [27] = test: Cell cycle arrest in human BXPC-3 cells assessed as decrease in cell population at G2/M phase at 4 to 16 uM measured after 48 hrs by AnnexinV-FITC/propidium iodide staining based flow cytometry; type: functional; settings: dose 4-16 µM
# SMMC-7721 = test: Antiproliferative activity against human SMMC-7721 cells assessed as cell growth inhibition at 2 uM measured after 48 to 72 hrs by MTT assay relative to control; type: functional; settings: time 48-72 hrs, read-out: GI
# Mus musculus [28] = test: Decrease in c-Myc expression in BALB/c mouse allografted with mouse Panc02 cells […] at 50 mg/kg, ip administered every day in combination with gemcitabine at 100 mg/kg measured after 20 days by immunohistochemical analysis; type: functional, organism-based; settings: time 20.0 day
# BXPC-3 [29] = test: Cell cycle arrest in human BXPC-3 cells assessed as acumulation at G0/G1 phase by measuring downregulation of CyclinA2 at 4 to 16 uM measured after 48 hrs by Western blot analysis; type: functional, cell-based; settings: dose 4-16 µM
# BXPC-3 [30] = test: Induction of apoptosis in human BXPC-3 cells assessed as late apoptotic cells at 8 uM measured after 48 hrs by AnnexinV/propidium iodide staining based flow cytometry (reference value: 5.15 %); type: functional
# Panc02 [31] = test: Antitumor activity against mouse Panc02 allografted in BALB/c mouse assessed as reduction in tumor weight at 50 mg/kg, ip administered every day for 20 days in combination with gemcitabine at 100 mg/kg relative to control; type: functional; settings: 480 h, time 20 day, read-out: TGI
structure (smiles),measurement,setting,value
CCS(=O)(=O)Nc1ccc(Oc2ccccc2F)c(-c2cn(C)c(=O)c3cncn23)c1,Activity,Mus musculus [1],Active
same,inhibition,[2],Active
same,Activity,Mus musculus [3],Active
same,Activity,Mus musculus [4],Active
same,Activity,BXPC-3 [5],Active
same,Activity,BXPC-3 [6],Active
same,Activity,BXPC-3 [7],Active
same,Activity,Mus musculus [8],Active
same,Activity,BXPC-3 [9],Active
same,Activity,BXPC-3 [10],Dose-dependent effect
same,Activity,BXPC-3 [11],Active
same,Activity,BXPC-3 [12],Active
same,Activity,BXPC-3 [13],1.46%
same,IC50,[14],0.035 µM
same,Activity,BXPC-3 [15],Active
same,inhibition,BXPC-3 [16],Active
same,Activity,Mus musculus [17],Active
same,growth inhibition (GI),BXPC-3 [18],Dose-dependent effect
same,Activity,BXPC-3 [19],Active
same,Activity,Panc02 [20],Active
same,inhibition in vivo at 50 mg/kg,Panc02 [21],79%
same,Activity,BXPC-3 [22],Active
same,inhibition,BXPC-3 [23],Active
same,inhibition of growth at 2 µM,PANC-1,16.5%
same,Activity,Panc02 [24],Active
same,Activity,BXPC-3 [25],Active
same,Activity,BXPC-3 [26],Active
same,Activity,BXPC-3 [27],Active
same,inhibition of growth at 2 µM,SMMC-7721,15.1%
same,Activity,Mus musculus [28],Active
same,Activity,BXPC-3 [29],Active
same,Activity,BXPC-3 [30],12.36%
same,inhibition in vivo at 50 mg/kg,Panc02 [31],85%
